Source: patent publication US12421222B2 (AUGUSTINE THERAPEUTICS, priority 2021, dated 2025)

Test system: acetylated tubulin (Lys40) in HeLa cells
Assay: Acetylated α-tubulin measurement in vitro (immunocytochemistry)
Format: cell-based
Settings: Homo sapiens, 6 hours incubation, acetylated tubulin (Lys40) by immunocytochemistry, read-out: IC50 (Tubulin deacetylation)
Experimental: HeLa cells were cultured in UltraCulture serum-free medium (Lonza) supplemented with 2 mM glutamine (Lonza). Assays were performed at 96-well or 384-well format, differences in assay protocols are detailed in Table 6. Cells per well were plated and incubated overnight at 37° C. overnight in a humidified atmosphere containing 5% CO2. Cell density and seeding volumes are detailed in Table 6. Compounds (dissolved in 100% DMSO) or DMSO (vehicle) were added manually by diluting them in culture medium at 10× final assay concentration and adding 10 μL to cells (96-well protocol). Alternatively, 50 nL compound was added directly to the cell culture using the Echo650 (Labcyte) (384-well protocol). In this assay, the final assay concentration of DMSO is 0.1%-0.4%. Trichostatin A (TSA) was used as a positive control. Cells were incubated with compounds at 37° C. in a humidified atmosphere containing 5% CO2 for 6 hours. Levels of acetylated tubulin (Lys40) were assessed by immunocytochemistry using target-specific antibodies. Cells were fixed with 4% PFA at RT as detailed in Table 6. After 2-3 wash steps with PBS, cells were permeabilized with 0.5% Triton in PBS at RT for 10 minutes followed by 1-2 washes with PBS. To avoid non-specific antibody staining, cells were blocked with 3% BSA in PBS at room temperature for 1 hour. […] Cells were washed 2-3 times with PBS and labelled for 1 h at RT with goat anti-mouse conjugated with Alexa 647 (Thermofisher) and goat anti-rabbit conjugated with Alexa 555 (Thermofisher) secondary antibodies, diluted in 1% BSA to a final concentration of 1:1000. Simultaneously, nuclei were stained with 1:10000-1:15000 Hoechst (Thermofisher). Incubation time and temperature of the primary antibodies are detailed in Table 6. Cells were washed 2-3 times with PBS and they were imaged with the Operetta CLS or Opera Phenix (PerkinElmer). Imaging is further detailed in Table 6. For imaging analysis, the Harmony analysis software (PerkinElmer) was used. Cytoplasmic (defined by total α-tubulin staining) intensities per well were used for α-tubulin (acetylated and total) quantification. Intensities were measured per cell and then averaged per well. Mean intensity levels of acetylated tubulin were normalized to the mean intensity levels of total tubulin. The changes in acetylated tubulin were normalized for each plate using GraphPad Prism software: tubulin acetylation in vehicle (DMSO)-treated cells were set to 0% while tubulin acetylation in TSA-treated cells were set to 100%. EC50 values were calculated using the log(inhibitor) vs. response—Variable slope (four parameters) nonlinear regression in GraphPad Prism software.

Question: With O=C(CSc1nc2nc(C(F)(F)F)ccc2o1)c1ccc(CNC(=O)C2(O)CC2)s1 [Example 45, 1-hydroxy-N-((5-(2-((5-(trifluoromethyl)oxazolo[4,5-b]157yrrolid-2-yl)thio)acetyl)thiophen-2-yl)methyl)cyclopropane-1-carboxamide] as the molecule, how does the IC50 read?
Answer: The IC50 was ≤ 100 nM.

Question: Which IC50 does the source give for Cn1cc2c(SCC(=O)c3ccc(CNC(=O)C(O)C(F)(F)F)s3)nc(C(F)(F)F)nc2n1 (centres unmarked) [Example 46, 3,3,3-trifluoro-2-hydroxy-N-((5-(2-((2-methyl-6-(trifluoromethyl)-2H-pyrazolo[3,4-d]pyrimidin-4-yl)thio)acetyl)thiophen-2-yl)methyl)propanamide] here?
Answer: The IC50 was 100 to 500 nM.

Question: How did the IC50 turn out when O=C(CSc1nc(C(F)(F)F)nc2ccc(N3CCOCC3)cc12)c1ccc(CNC(=O)C2(O)CC2)s1 [Example 47, 1-hydroxy-N-((5-(2-((6-morpholino-2-(trifluoromethyl)quinazolin-4-yl)thio)acetyl)thiophen-2-yl)methyl)cyclopropane-1-carboxamide] was run?
Answer: Its IC50 is 100 to 500 nM.

Question: Cn1cc2c(SCC(=O)c3ccc(CNC(=O)C(C)(C)O)s3)nc(C(F)(F)F)nc2n1 [Example 48, 2-hydroxy-2-methyl-N-((5-(2-((2-methyl-6-(trifluoromethyl)-2H-pyrazolo[3,4-d]pyrimidin-4-yl)thio)acetyl)thiophen-2-yl)methyl)propanamide] was tested. Which IC50 did it give?
Answer: Its IC50 is 100 to 500 nM.

Question: Cn1cc2c(SCC(=O)c3ccc(CNC(=O)C4(O)CC4)s3)nc(C(F)(F)F)nc2n1 [Example 49, 1-hydroxy-N-((5-(2-((2-methyl-6-(trifluoromethyl)-2H-pyrazolo[3,4-d]pyrimidin-4-yl)thio)acetyl)thiophen-2-yl)methyl)cyclopropane-1-carboxamide] was tested. Which IC50 did it give?
Answer: Its IC50 is 100 to 500 nM.

Question: For COc1ccc2nc(C)nc(SCC(=O)c3ccc(CNC(=O)C4(O)CC4)s3)c2c1 [Example 50, 1-hydroxy-N-((5-(2-((6-methoxy-2-methylquinazolin-4-yl)thio)acetyl)thiophen-2-yl)methyl)cyclopropane-1-carboxamide], which IC50 is on record?
Answer: The IC50 was 100 to 500 nM.

Question: For COc1ccc2nc(C)nc(SCC(=O)c3ccc(CNC(=O)C4CC4)s3)c2c1 [Example 51, N-((5-(2-((6-methoxy-2-methylquinazolin-4-yl)thio)acetyl)thiophen-2-yl)methyl)cyclopropanecarboxamide], which IC50 is on record?
Answer: The IC50 was 1000 to 3330 nM.

Question: With Cn1ncc2c(SCC(=O)c3ccc(CNC(=O)CO)s3)ncnc21 [Example 59, 2-hydroxy-N-((5-(2-((1-methyl-1H-pyrazolo[3,4-d]pyrimidin-4-yl)thio)acetyl)thiophen-2-yl)methyl)acetamide] as the molecule, how does the IC50 read?
Answer: The IC50 was 100 to 500 nM.

Question: Which IC50 does the source give for COc1ccc2nc(C)nc(SCC(=O)c3ccc(CNC(=O)CO)s3)c2c1 [Example 60, 2-Hydroxy-N-((5-(2-((6-methoxy-2-methylquinazolin-4-yl)thio)acetyl)thiophen-2-yl)methyl)acetamide] here?
Answer: Its IC50 is 100 to 500 nM.

Question: Which IC50 does the source give for Cn1cc2c(SCC(=O)c3ccc(CNC(=O)CO)s3)nc(C(F)(F)F)nc2n1 [Example 61, 2-hydroxy-N-((5-(2-((2-methyl-6-(trifluoromethyl)-2H-pyrazolo[3,4-d]pyrimidin-4-yl)thio)acetyl)thiophen-2-yl)methyl)acetamide] here?
Answer: Its IC50 is ≤ 100 nM.

Question: Which IC50 does the source give for CCc1nc(SCC(=O)c2ccc(CNC(=O)CO)s2)c2ccccc2n1 [Example 62, N-((5-(2-((2-ethylquinazolin-4-yl)thio)acetyl)thiophen-2-yl)methyl)-2-hydroxyacetamide] here?
Answer: The IC50 was 100 to 500 nM.

Question: Which IC50 does the source give for O=C(CO)NCc1ccc(C(=O)CSc2nc(C(F)(F)F)nc3ccc(N4CCOCC4)cc23)s1 [Example 63] here?
Answer: Its IC50 is 100 to 500 nM.

Question: Cc1nc(SCC(=O)c2ccc(CNC(=O)CO)s2)c2cccnc2n1 [Example 64, 2-hydroxy-N-((5-(2-((2-methylpyrido[2,3-d]pyrimidin-4-yl)thio)acetyl)thiophen-2-yl)methyl)acetamide] was tested. Which IC50 did it give?
Answer: The IC50 was ≤ 100 nM.

Question: Which IC50 does the source give for Cc1nc(SCC(=O)c2ccc(CNC(=O)CO)s2)c2cn(C)nc2n1 [Example 65, N-((5-(2-((2,6-dimethyl-2H-pyrazolo[3,4-d]pyrimidin-4-yl)thio)acetyl)thiophen-2-yl)methyl)-2-hydroxyacetamide] here?
Answer: The IC50 was 1000 to 3330 nM.

Question: Which IC50 does the source give for Cc1nc(SCC(=O)c2ccc(CNC(=O)CO)s2)c2ccccc2n1 [Example 66, 2-hydroxy-N-((5-(2-((2-methylquinazolin-4-yl)thio)acetyl)thiophen-2-yl)methyl)acetamide] here?
Answer: Its IC50 is 100 to 500 nM.

Question: Cc1nc(SCC(=O)c2ccc(CNC(=O)CO)s2)c2cc(F)ccc2n1 [Example 67, N-((5-(2-((6-fluoro-2-methylquinazolin-4-yl)thio)acetyl)thiophen-2-yl)methyl)-2-hydroxyacetamide] was tested. Which IC50 did it give?
Answer: The IC50 was 100 to 500 nM.

Question: With Cc1nc(SCC(=O)c2ccc(CNC(=O)CO)s2)c2ccc(F)cc2n1 [Example 68, N-((5-(2-((7-fluoro-2-methylquinazolin-4-yl)thio)acetyl)thiophen-2-yl)methyl)-2-hydroxyacetamide] as the molecule, how does the IC50 read?
Answer: The IC50 was 100 to 500 nM.

Question: How did the IC50 turn out when Cn1cc2c(SCC(=O)c3ccc(CNC(=O)CO)s3)nc(C(F)F)nc2n1 [Example 69, N-((5-(2-((6-(difluoromethyl)-2-methyl-2H-pyrazolo[3,4-d]pyrimidin-4-yl)thio)acetyl)thiophen-2-yl)methyl)-2-hydroxyacetamide] was run?
Answer: Its IC50 is 100 to 500 nM.

Question: Which IC50 does the source give for COc1ccc2c(SCC(=O)c3ccc(CNC(=O)CO)s3)nc(C)nc2c1 [Example 70, 2-hydroxy-N-((5-(2-((7-methoxy-2-methylquinazolin-4-yl)thio)acetyl)thiophen-2-yl)methyl)acetamide] here?
Answer: The IC50 was 100 to 500 nM.

Question: How did the IC50 turn out when O=C(CO)NCc1ccc(C(=O)CSc2nc3cc(C(F)(F)F)ncc3o2)s1 [Example 71, 2-hydroxy-N-((5-(2-((6-(trifluoromethyl)oxazolo[5,4-c]156yrrolid-2-yl)thio)acetyl)thiophen-2-yl)methyl)acetamide] was run?
Answer: The IC50 was ≤ 100 nM.

Question: How did the IC50 turn out when O=C(CO)NCc1ccc(C(=O)CSc2nc3nc(C(F)(F)F)ccc3o2)s1 [Example 72, 2-hydroxy-N-((5-(2-((5-(trifluoromethyl)oxazolo[4,5-b]156yrrolid-2-yl)thio)acetyl)thiophen-2-yl)methyl)acetamide] was run?
Answer: The IC50 was ≤ 100 nM.

Question: Which IC50 does the source give for Cc1nc(SCC(=O)c2ccc(CNC(=O)CO)s2)c2cc(Cl)c(F)cc2n1 [Example 73, N-((5-(2-((6-chloro-7-fluoro-2-methylquinazolin-4-yl)thio)acetyl)thiophen-2-yl)methyl)-2-hydroxyacetamide] here?
Answer: The IC50 was 100 to 500 nM.

Question: With Cn1ncc2c(SCC(=O)c3ccc(CNC(=O)CO)s3)nc(C(F)(F)F)nc21 [Example 74, 2-hydroxy-N-((5-(2-((1-methyl-6-(trifluoromethyl)-1H-pyrazolo[3,4-d]pyrimidin-4-yl)thio)acetyl)thiophen-2-yl)methyl)acetamide] as the molecule, how does the IC50 read?
Answer: Its IC50 is 100 to 500 nM.

Question: How did the IC50 turn out when Cc1nc(SCC(=O)c2ccc(CNC(=O)CO)s2)c2cc(C(F)(F)F)ccc2n1 [Example 76, 2-hydroxy-N-((5-(2-((2-methyl-6-(trifluoromethyl)quinazolin-4-yl)thio)acetyl)thiophen-2-yl)methyl)acetamide] was run?
Answer: Its IC50 is ≤ 100 nM.

Question: How did the IC50 turn out when Cc1nc(SCC(=O)c2ccc(CNC(=O)CO)s2)c2cc(OC3CC3)ccc2n1 [Example 77, N-((5-(2-((6-cyclopropoxy-2-methylquinazolin-4-yl)thio)acetyl)thiophen-2-yl)methyl)-2-hydroxyacetamide] was run?
Answer: Its IC50 is 100 to 500 nM.

Question: Cc1nc(SCC(=O)c2ccc(CNC(=O)CO)s2)c2cc(NCC3CC3)ccc2n1 [Example 78, N-((5-(2-((6-((cyclopropylmethyl)amino)-2-methylquinazolin-4-yl)thio)acetyl)thiophen-2-yl)methyl)-2-hydroxyacetamide] was tested. Which IC50 did it give?
Answer: Its IC50 is 100 to 500 nM.
